Structures can show the parent of a compound that is named as a salt.
System: sciatic nerve (motor block) in subjects undergoing bunionectomy
Assay: Pharmacodynamics: onset and duration of motor block (foot movement), clinical trial #1 Part A
Format: in vivo, human
Method: Clinical Study #1 was a Phase 3, multicenter, randomized, double-blind, active-controlled study in 180 subjects undergoing bunionectomy. Subjects received a sciatic (in the popliteal fossa) nerve block with a single dose of either EXPAREL 266 mg (EXP266), EXPAREL 133 mg (EXP133), or 0.25% bupivacaine HCl (50 mg; BUP50). The study was conducted in two parts (Part A and Part B). Part A was to be completed and analyzed before enrollment in Part B was initiated. Part A was a 3-arm cohort with 66 subjects undergoing bunionectomy to obtain information on pharmacokinetics (PK), pharmacodynamics (PD), efficacy, and safety. Subjects were randomized (1:1:1) to the EXP266, EXP133, and BUP50 treatment arms. Part B was a 2-arm cohort with 119 subjects undergoing bunionectomy to evaluate the efficacy and safety of EXPAREL compared with bupivacaine HCl. The dose of the EXPAREL arm in Part B was determined based on the interim analysis of the Part A cohort results.
On the day of surgery, subjects received an ultrasound-guided sciatic (in the popliteal fossa) nerve block with one of the following treatments: • EXP266 arm: subjects randomized to this treatment arm received 20 mL (266 mg) EXPAREL mixed with 10 mL saline (Part A only; per interim analysis was not selected for Part B) • EXP133 arm: subjects randomized to this treatment arm received 10 mL (133 mg) EXPAREL mixed with 20 mL saline (Part A and B) • BUP50 arm: subjects randomized to this treatment arm received 20 mL (50 mg) 0.25% bupivacaine HCl mixed with 10 mL saline (Part A and B)
Efficacy assessments included pain intensity scores focused on the operative foot using the Numeric Rating Scale (NRS), total postsurgical opioid consumption in OMED, time to first opioid consumption post-surgery, and percentage of opioid-free patients through 96 hours, and worst and average NRS pain intensity scores at 24 h, 48 h, 72 h, and 96 h from end of surgery. Additionally, blood samples for pharmacokinetic (PK) analysis (area under the curve [AUC], maximum plasma concentration [Cmax], time of maximum plasma concentration [Tmax], including early and late Cmax and Tmax (EXP133-ADMIX arm only), apparent terminal elimination half-life [t1/2el], apparent clearance [CL/F], and apparent volume of distribution [Vd/F]). Pharmacodynamic (PD) assessment data, including median time to onset of sensory block and motor block, and median duration of sensory and motor block were collected.
Pharmacodynamic endpoints included: onset of sensory block, offset of sensory block, duration of sensory block, onset of motor block, offset of motor block, and duration of motor block.

## CCCCN1CCCCC1C(=O)Nc1c(C)cccc1C (stereo not shown) [BUP50, bupivacaine HCl]
1 h post-dose for EXP266, 2 h post-dose for EXP133 and BUP50
  subjects without foot movement at the first time point with ≥50%: 54.5%
84 h post-dose
  subjects who still did not have complete foot movement: 18.2%
human, in vivo
  subjects with motor block onset observed: 40.9%
post-dose
  first time point at which foot movement was not present in ≥50% of subjects: 2 h

Source: US11918565B1, “Treatment of post-operative pain via sciatic nerve block with sustained-release liposomal anesthetic compositions” (Pacira Pharmaceuticals, Inc., priority 2022, dated 2024)
